Data from paper PMC12561453, “Synthesis and Structure–Activity Relationship Study of 2-(amino)quinazolin-4(3H)-one Derivatives as Potential Inhibitors of Methicillin-Resistant Staphylococcus aureus (MRSA)” (Antibiotics, 2025).
In brackets after ≈: the same amount, converted by molar mass. Where two headings read alike, the source gives them in different places.

Tests used:
[1] = Microsomal stability, human; type: in vitro ADME; details: human microsomes
Method: (§1) Table S2. Result of microsomal stability, plasma protein binding rate, and CYP inhibition of 6l and 6y
(§2) Compound MSa PPBrat human rat human 1A2 2C9 2C19 2D6 3A4
(§3) a % of remaining after 30 min. b plasma protein binding rate (%) at 5 μM concentrations. c % of CYP
(§4) inhibition in human liver microsomes at 10 μM concentrations. […]

[2] = Cytotoxicity in HFL-1 cells; type: cell-based; details: human, HFL-1 cells (embryonic lung cell line)
Method: (§5) Table S1. Results of hERG binding assay and cytotoxicity of 6l and 6y
(§6) Compound hERGa CytotoxicityVERO HFL-1 L929 NIH 3T3 CHO-K1
(§7) a % inhibition at 10 μM concentrations. b IC50 values in various mammalian cell lines. […]

[3] = target: T1, CYP1A2 (Homo sapiens, UniProt P05177); experiment: CYP inhibition in human liver microsomes, 1A2; type: in vitro ADME
T1 construct: from tissue; host or cells: human liver microsomes
T1 sequence (P05177 1-516): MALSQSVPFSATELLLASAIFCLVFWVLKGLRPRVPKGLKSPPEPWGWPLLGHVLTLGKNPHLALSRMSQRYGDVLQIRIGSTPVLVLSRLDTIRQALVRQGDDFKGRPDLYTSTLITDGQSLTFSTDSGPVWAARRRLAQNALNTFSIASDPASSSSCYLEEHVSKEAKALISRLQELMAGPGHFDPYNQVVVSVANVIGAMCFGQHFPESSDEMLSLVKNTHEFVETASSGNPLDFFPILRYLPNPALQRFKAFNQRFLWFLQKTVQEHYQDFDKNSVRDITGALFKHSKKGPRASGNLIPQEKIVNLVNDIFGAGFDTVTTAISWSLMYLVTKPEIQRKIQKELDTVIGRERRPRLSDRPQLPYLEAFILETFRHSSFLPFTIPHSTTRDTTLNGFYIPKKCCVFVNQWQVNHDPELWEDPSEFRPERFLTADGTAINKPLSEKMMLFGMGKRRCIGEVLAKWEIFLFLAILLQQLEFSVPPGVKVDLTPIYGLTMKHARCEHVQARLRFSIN
Method: as §1, §2, §3, §4

[4] = target: T2, CYP2C19 (Homo sapiens, UniProt P33261); experiment: CYP inhibition in human liver microsomes, 2C19; type: in vitro ADME
T2 construct: from tissue; host or cells: human liver microsomes
Method: as §1, §2, §3, §4

[5] = system: HepG2 cells; experiment: In vitro cytotoxicity, HepG2 viability (resazurin); type: cell-based, human; details: HepG2 cells, 24 h, resazurin, read-out: HepG2 IC50
Method: The in vitro cytotoxicity of the compounds was evaluated by measuring the viability of HepG2 cells, a human liver cell line, following treatment in a dose–response manner, as previously described. […] The efficacy window was calculated as the ratio of IC50 in HepG2 cells to MIC50 against JE2.
To test cytotoxicity with compounds, the human liver cell line HepG2 (ATCC #HB-8065) was used for the assay. HepG2 was cultured in DMEM with 10% fetal bovine serum (FBS) in a 96-well microplate at 37 °C and 5% CO2. HepG2 cells were seeded at a final density of 5 × 10^4 cells/well, and DMEM-containing diluted compounds were added and incubated on the plates at 37 °C in 5% CO2 for 24 h. After that, resazurin (final concentration, 0.1 mg/mL) was added to each well and incubated on the plates at 37 °C in 5% CO2 for 2 h. To detect the fluorescence at 530 nm excitation and 590 nm emission, an Ensight multimode plate reader was used (Revvity, Waltham, MA, USA).

[6] = Cytotoxicity in NIH 3T3 cells; type: cell-based; details: mouse, NIH 3T3 cells (embryonic fibroblast cell line)
Method: as §5, §6, §7

[7] = system: S. aureus ATCC25923; experiment: Broth microdilution dose-response, S. aureus ATCC25923; type: cell-based, Staphylococcus aureus; details: Staphylococcus aureus, ATCC25923, methicillin-sensitive strain; OD600 after 18–24 h; read-out: ATCC25923 MIC50
Source text: (§8) The antistaphylococcal activities (MIC50) of the synthesized compounds were examined via a previously described broth microdilution method against two S. aureus strains: ATCC25923, a methicillin-sensitive reference strain, and JE2, a methicillin-resistant strain of the USA300 lineage (Figure 2, Table 1).
(§9) Staphylococcus aureus USA300, a methicillin-resistant strain, was obtained from the Nebraska Transposon Mutant Library. Staphylococcus aureus ATCC25923, a pan-drug-susceptible strain, was purchased from the American Type Culture Collection (ATCC) (Manassas, VA, USA). S. aureus strains were grown in Cation-Adjusted Mueller–Hinton broth (CAMHB) (Difco) at 37 °C. Bacterial strain stocks were stored in vials with 25% glycerol at −80 °C. For each experiment, overnight cultures were prepared by inoculating a frozen bacterial strain stock in 10 mL of CAMHB medium and incubating at 37 °C in a shaking incubator (180 rpm). For the preliminary screen and dose–response experiments, 100 µL of overnight culture was inoculated into 10 mL of fresh CAMHB and incubated for 3 h at 37 °C and 180 rpm.
(§10) Antibiotic susceptibility assay was tested according to modified Clinical and Laboratory Standards Institute (CLSI) laboratory guidelines for broth microdilution assays. S. aureus was cultured in CAMHB, and bacterial cells were prepared with an OD600 of 0.005. DRC plates were prepared by adding 40 µL of bacterial suspension to each well, where 10 µL of each compound had been dispensed for […] of two-fold serial dilutions starting at […]. After incubation of the plates at 37 °C for 18–24 h with 5% CO2, the growth of S. aureus was detected by measuring the OD600nm using an Ensight (Revvity) spectrometer (Revvity, Waltham, MA, USA).
(§11) Figure 2 In vitro antibacterial activities of 2-(amino)quinazolin-4(3H)-one derivatives. S. aureus ATCC25923 (blue) and USA300 JE (orange) strains were incubated with serial dilutions of 2-(amino)quinazolin-4(3H)-one derivatives (0.19–100 µM) for 18–24 h. The dose–responses were observed by measuring OD600nm. The plots were drawn from each group of strains with nonlinear curve fits.

[8] = target: T3, CYP2D6 (Homo sapiens, UniProt P10635); experiment: CYP inhibition in human liver microsomes, 2D6; type: in vitro ADME
T3 construct: from tissue; host or cells: human liver microsomes
Method: as §1, §2, §3, §4

[9] = Plasma protein binding, rat; type: in vitro ADME; details: read-out: PPB rat, plasma protein binding rate (converted)
Method: as §1, §2, §3, §4

[10] = system: S. aureus USA300 JE2; experiment: Broth microdilution dose-response, S. aureus USA300 JE2 (MRSA); type: cell-based, Staphylococcus aureus; details: Staphylococcus aureus, USA300, USA300 JE2, methicillin-resistant; OD600 after 18–24 h; read-out: USA300 MIC50
Source text: as §8, §9, §10, §11

T2 sequence (P33261 whole entry): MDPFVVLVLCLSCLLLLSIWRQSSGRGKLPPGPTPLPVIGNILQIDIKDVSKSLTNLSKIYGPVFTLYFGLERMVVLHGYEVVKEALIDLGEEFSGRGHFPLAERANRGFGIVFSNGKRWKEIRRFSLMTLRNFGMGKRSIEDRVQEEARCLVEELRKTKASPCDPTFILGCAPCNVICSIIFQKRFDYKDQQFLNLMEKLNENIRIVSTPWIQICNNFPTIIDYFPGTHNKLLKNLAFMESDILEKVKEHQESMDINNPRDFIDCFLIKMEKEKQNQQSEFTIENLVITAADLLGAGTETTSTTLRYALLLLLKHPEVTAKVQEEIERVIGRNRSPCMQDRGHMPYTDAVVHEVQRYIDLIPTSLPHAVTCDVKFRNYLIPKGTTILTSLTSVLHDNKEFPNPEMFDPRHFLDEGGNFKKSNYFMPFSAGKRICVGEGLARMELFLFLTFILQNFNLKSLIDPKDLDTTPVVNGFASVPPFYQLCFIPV
T3 sequence (P10635 whole entry): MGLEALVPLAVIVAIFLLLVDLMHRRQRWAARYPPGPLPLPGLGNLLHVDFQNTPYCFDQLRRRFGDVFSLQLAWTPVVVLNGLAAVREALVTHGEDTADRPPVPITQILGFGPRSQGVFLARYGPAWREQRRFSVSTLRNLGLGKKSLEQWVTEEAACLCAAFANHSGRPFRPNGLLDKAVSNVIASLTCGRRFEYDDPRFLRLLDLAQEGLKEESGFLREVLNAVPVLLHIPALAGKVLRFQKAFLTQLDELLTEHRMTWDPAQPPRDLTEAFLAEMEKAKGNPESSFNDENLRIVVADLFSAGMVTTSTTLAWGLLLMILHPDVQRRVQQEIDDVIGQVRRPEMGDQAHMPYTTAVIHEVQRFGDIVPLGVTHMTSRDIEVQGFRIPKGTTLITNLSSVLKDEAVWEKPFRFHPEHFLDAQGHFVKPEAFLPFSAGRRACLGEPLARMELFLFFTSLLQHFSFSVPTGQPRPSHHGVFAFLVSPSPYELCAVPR

Row | Compound | MS human, % of remaining after 30 min [1] [%] | IC50 [2] [µM] | inhibition at 10 µM [3] [%] | inhibition at 10 µM [4] [%] | IC50 [5] [µM] | IC50 ([5]; Homo sapiens, HepG2, 24 h) [µM] | IC50 [6] [µM] | MIC50 [7] [µM] | inhibition at 10 µM [8] [%] | fraction unbound at 5 μM [9] | MIC50 [10] [µM]
1 | O=c1[nH]c(Nc2cc(Cl)cc(Cl)c2)nc2cc(Cl)ccc12 [6l, 7-Chloro-2-((3,5-dichlorophenyl)amino)quinazolin-4(3H)-one] | 99.3 | 7.5 | 15.1 | < 1 | 62.2 | 62 | > 100 | 1 (≈ 0.341 µg/mL) | 20.1 | 0.001 | 0.6 (≈ 0.204 µg/mL)
2 | O=c1[nH]c(NCc2ccc(F)c(F)c2)nc2cc(Cl)ccc12 [6y, 7-Chloro-2-((3,4-difluorobenzyl)amino)quinazolin-4(3H)-one] | 42.9 | 50.7 | 92.5 | 93.6 | – | 20.2 | 62 | 0.36 (≈ 0.116 µg/mL) | 90.1 | 0.005 | 0.02 (≈ 0.00643 µg/mL)
